According to patent US20230212122A1, “MITOCHONDRIAL TARGETING COMPOUNDS FOR THE TREATMENT OF ASSOCIATED DISEASES” (The Regents of the University of Michigan, priority 2020, published 2023):

Legend:
Type in all cases: cell-based
BxPc3 cells = test: MTT assay, cancer cell growth inhibition (BxPC-3); settings: Homo sapiens, BXPC-3, 168 h, 7 days of treatment
Protocol: (§1) Measurement of cancer cell growth inhibition of the compounds of invention Cytotoxicity of the compounds was assessed by MTT assay. In brief, MIA PaCa-2 cells or BxPc3 cells were seeded in 96-well microtitre plates at density of 200 cells/well. After overnight attachment, cells were treated with compounds at indicated concentration. After 7 days of treatment, MTT solution (3 mg/ml, 20 μl) was added to each well and cells were incubated for 3 h at 37° C. After incubation, media from each well was removed and the dark blue formazan crystals formed by live cells were dissolved in DMSO ([…] per well). The absorbance intensity was measured at 570 nm on a microplate reader (Molecular Devices, Sunnyvale, Calif., USA). The half maximal inhibitory concentration (IC50) value were calculated using 4 or 6 dots curve plotted with Cumulative Gaussian equation or Log(inhibitor) vs. response equation in GraphPad Prism.

MIA PaCa-2 cells = test: MTT assay, cancer cell growth inhibition (MIA PaCa-2); settings: Homo sapiens, MIA PaCa-2, 168 h, 7 days of treatment, read-out: MiaPaCa IC50
Protocol: as §1

UM16 cell line = test: GSEA of proteomics data ([…], KEGG pathways); settings: for ES / NES: 5 μM, 24 hours
Source text: Several proteins participating in energy metabolism were dramatically changed.

[1] = HALLMARK_ADIPOGENESIS, FDR q-val 0.644
[2] = HALLMARK_ALLOGRAFT_REJECTION, FDR q-val 0.521
[3] = HALLMARK_ANDROGEN_RESPONSE, FDR q-val 0.915
[4] = HALLMARK_APOPTOSIS, FDR q-val 0.666
[5] = HALLMARK_BILE_ACID_METABOLISM, FDR q-val 0.245
[6] = HALLMARK_CHOLESTEROL_HOMEOSTASIS, FDR q-val 0.314
[7] = HALLMARK_COAGULATION, FDR q-val 0.004
[8] = HALLMARK_COMPLEMENT, FDR q-val 0.425
[9] = HALLMARK_DNA_REPAIR, FDR q-val 0.454
[10] = HALLMARK_E2F_TARGETS, FDR q-val 0.077
[11] = HALLMARK_EPITHELIAL_MESENCHYMAL_TRANSITION, FDR q-val 0.456
[12] = HALLMARK_G2M_CHECKPOINT, FDR q-val 0.107
[13] = HALLMARK_GLYCOLYSIS, FDR q-val 0.489
[14] = HALLMARK_HEME_METABOLISM, FDR q-val 0.552
[15] = HALLMARK_HYPOXIA, FDR q-val 0.003
[16] = HALLMARK_IL2_STAT5_SIGNALING, FDR q-val 0.552
[17] = HALLMARK_MITOTIC_SPINDLE, FDR q-val 0.529
[18] = HALLMARK_MYC_TARGETS_V1, FDR q-val 0.006
[19] = HALLMARK_MYC_TARGETS_V2, FDR q-val 0.264
[20] = HALLMARK_MYOGENESIS, FDR q-val 0.467
[21] = HALLMARK_OXIDATIVE_PHOSPHORYLATION, FDR q-val 0.711
[22] = HALLMARK_P53_PATHWAY, FDR q-val 0.146
[23] = HALLMARK_PEROXISOME, FDR q-val 0.645
[24] = HALLMARK_PROTEIN_SECRETION, FDR q-val 0.862
[25] = HALLMARK_SPERMATOGENESIS, FDR q-val 0.851
[26] = HALLMARK_TGF_BETA_SIGNALING, FDR q-val 0.771
[27] = HALLMARK_TNFA_SIGNALING_VIA_NFKB, FDR q-val 0.457
[28] = HALLMARK_UNFOLDED_PROTEIN_RESPONSE, FDR q-val 0.070
[29] = HALLMARK_UV_RESPONSE_DN, FDR q-val 0.510
[30] = HALLMARK_XENOBIOTIC_METABOLISM, FDR q-val 0.488
[31] = KEGG_ADIPOCYTOKINE_SIGNALING_PATHWAY, FDR q-val 0.903
[32] = KEGG_ARGININE_AND_PROLINE_METABOLISM, FDR q-val 0.668
[33] = KEGG_B_CELL_RECEPTOR_SIGNALING_PATHWAY, FDR q-val 0.813
[34] = KEGG_CARDIAC_MUSCLE_CONTRACTION, FDR q-val 0.900
[35] = KEGG_CYTOSOLIC_DNA_SENSING_PATHWAY, FDR q-val 0.907
[36] = KEGG_FC_EPSILON_RI_SIGNALING_PATHWAY, FDR q-val 0.825
[37] = KEGG_GAP_JUNCTION, FDR q-val 0.898
[38] = KEGG_GLYCEROLIPID_METABOLISM, FDR q-val 0.663
[39] = KEGG_GLYCOLYSIS_GLUCONEOGENESIS, FDR q-val 0.889
[40] = KEGG_INOSITOL_PHOSPHATE_METABOLISM, FDR q-val 0.852
[41] = KEGG_INSULIN_SIGNALING_PATHWAY, FDR q-val 0.872
[42] = KEGG_LYSINE_DEGRADATION, FDR q-val 0.914
[43] = KEGG_MELANOGENESIS, FDR q-val 0.638
[44] = KEGG_NON_SMALL_CELL_LUNG_CANCER, FDR q-val 0.894
[45] = KEGG_NUCLEOTIDE_EXCISION_REPAIR, FDR q-val 0.829
[46] = KEGG_PATHWAYS_IN_CANCER, FDR q-val 0.858
[47] = KEGG_PEROXISOME, FDR q-val 0.839
[48] = KEGG_PROP_ANOATE_METABOLISM, FDR q-val 0.889
[49] = KEGG_PURINE_METABOLISM, FDR q-val 0.909
[50] = KEGG_VIRAL_MYOCARDITIS, FDR q-val 0.832

CCOC(=O)[C@@H]1CCCN(S(=O)(=O)c2ccc(S(=O)(=O)N(CC)CC)cc2)C1 [DX2-201, ethyl (R)-1-((4-(N,N-diethylsulfamoyl)phenyl)sulfonyl)piperidine-3-carboxylate]
IC50 (BxPc3 cells): 630 ± 240 nM | IC50 (MIA PaCa-2 cells): 370 ± 60 nM | TCA cycle (proteomic results) (UM16 cell line): suppressed | hypoxia pathways, bile acid metabolism, cholesterol homoeostasis and glycolysis (proteomic results) (UM16 cell line): upregulated | ES (UM16 cell line; [1]): 0.317 | NES (UM16 cell line; [1]): 1.025 | ES (UM16 cell line; [2]): −0.287 | NES (UM16 cell line; [2]): −1.082 | ES (UM16 cell line; [3]): 0.259 | NES (UM16 cell line; [3]): 0.760 | ES (UM16 cell line; [4]): 0.335 | NES (UM16 cell line; [4]): 1.042 | ES (UM16 cell line; [5]): 0.523 | NES (UM16 cell line; [5]): 1.465 | ES (UM16 cell line; [6]): 0.493 | NES (UM16 cell line; [6]): 1.407 | ES (UM16 cell line; [7]): 0.636 | NES (UM16 cell line; [7]): 1.813 | ES (UM16 cell line; [8]): 0.401 | NES (UM16 cell line; [8]): 1.235 | ES (UM16 cell line; [9]): 0.381 | NES (UM16 cell line; [9]): 1.239 | ES (UM16 cell line; [10]): −0.349 | NES (UM16 cell line; [10]): −1.559 | ES (UM16 cell line; [11]): 0.449 | NES (UM16 cell line; [11]): 1.312 | NES (UM16 cell line; HALLMARK_ESTROGEN_RESPONSE_EARLY, FDR q-val 0.813): 0.929 | ES (UM16 cell line; [12]): −0.313 | NES (UM16 cell line; [12]): −1.421 | ES (UM16 cell line; [13]): 0.399 | NES (UM16 cell line; [13]): 1.281 | ES (UM16 cell line; [14]): 0.376 | NES (UM16 cell line; [14]): 1.150 | ES (UM16 cell line; [15]): 0.595 | NES (UM16 cell line; [15]): 1.851 | ES (UM16 cell line; [16]): 0.384 | NES (UM16 cell line; [16]): 1.176 | ES (UM16 cell line; [17]): 0.348 | NES (UM16 cell line; [17]): 1.170 | ES (UM16 cell line; [18]): −0.424 | NES (UM16 cell line; [18]): −1.975 | ES (UM16 cell line; [19]): −0.329 | NES (UM16 cell line; [19]): −1.215 | ES (UM16 cell line; [20]): −0.285 | NES (UM16 cell line; [20]): −1.077 | ES (UM16 cell line; [21]): −0.214 | NES (UM16 cell line; [21]): −0.938 | ES (UM16 cell line; [22]): −0.323 | NES (UM16 cell line; [22]): −1.338 | ES (UM16 cell line; [23]): 0.347 | NES (UM16 cell line; [23]): 1.037 | ES (UM16 cell line; [24]): −0.207 | NES (UM16 cell line; [24]): −0.842 | ES (UM16 cell line; [25]): −0.229 | NES (UM16 cell line; [25]): −0.803 | ES (UM16 cell line; [26]): −0.296 | NES (UM16 cell line; [26]): −0.944 | ES (UM16 cell line; [27]): 0.448 | NES (UM16 cell line; [27]): 1.335 | ES (UM16 cell line; [28]): −0.372 | NES (UM16 cell line; [28]): −1.517 | ES (UM16 cell line; [29]): 0.433 | NES (UM16 cell line; [29]): 1.256 | ES (UM16 cell line; [30]): 0.393 | NES (UM16 cell line; [30]): 1.244 | ES (UM16 cell line; [31]): 0.390 | NES (UM16 cell line; [31]): 1.046 | NES (UM16 cell line; KEGG_ANTIGEN_PROCESSING_AND_PRESENTATION, FDR q-val 0.792): −0.917 | ES (UM16 cell line; [32]): 0.543 | NES (UM16 cell line; [32]): 1.389 | NES (UM16 cell line; KEGG_BASAL_TRANSCRIPTION_FACTORS, FDR q-val 0.687): −1.121 | ES (UM16 cell line; [33]): 0.504 | NES (UM16 cell line; [33]): 1.432 | ES (UM16 cell line; [34]): 0.469 | NES (UM16 cell line; [34]): 1.177 | NES (UM16 cell line; KEGG_CELL_CYCLE, FDR q-val 0.828): −0.995 | NES (UM16 cell line; KEGG_CITRATE_CYCLE_TCA_CYCLE, FDR q-val 0.422): −1.416 | ES (UM16 cell line; [35]): 0.469 | NES (UM16 cell line; [35]): 1.166 | NES (UM16 cell line; KEGG_DNA_REPLICATION, FDR q-val 0.844): −0.919 | NES (UM16 cell line; KEGG_ERBB_SIGNALING_PATHWAY, FDR q-val 0.821): 1.410 | ES (UM16 cell line; [36]): 0.593 | NES (UM16 cell line; [36]): 1.623 | ES (UM16 cell line; [37]): 0.386 | NES (UM16 cell line; [37]): 1.041 | ES (UM16 cell line; [38]): 0.572 | NES (UM16 cell line; [38]): 1.376 | ES (UM16 cell line; [39]): 0.394 | NES (UM16 cell line; [39]): 1.086 | ES (UM16 cell line; [40]): 0.520 | NES (UM16 cell line; [40]): 1.277 | ES (UM16 cell line; [41]): 0.352 | NES (UM16 cell line; [41]): 1.077 | ES (UM16 cell line; [42]): 0.381 | NES (UM16 cell line; [42]): 1.007 | ES (UM16 cell line; [43]): 0.534 | NES (UM16 cell line; [43]): 1.369 | ES (UM16 cell line; [44]): 0.415 | NES (UM16 cell line; [44]): 1.092 | ES (UM16 cell line; [45]): 0.469 | NES (UM16 cell line; [45]): 1.271 | NES (UM16 cell line; KEGG_N_GLYCAN_BIOSYNTHESIS, FDR q-val 0.658): −1.160 | NES (UM16 cell line; KEGG_PARKINSONS_DISEASE, FDR q-val 0.702): −1.180 | ES (UM16 cell line; [46]): 0.324 | NES (UM16 cell line; [46]): 1.074 | ES (UM16 cell line; [47]): 0.459 | NES (UM16 cell line; [47]): 1.302 | ES (UM16 cell line; [48]): 0.424 | NES (UM16 cell line; [48]): 1.079 | NES (UM16 cell line; KEGG_PROTEASOME, FDR q-val 0.605): −1.425 | NES (UM16 cell line; KEGG_PROTEIN_EXPORT, FDR q-val 0.625): −1.116 | ES (UM16 cell line; [49]): 0.331 | NES (UM16 cell line; [49]): 1.023 | NES (UM16 cell line; KEGG_RIBOSOME, FDR q-val 0.003): −2.132 | NES (UM16 cell line; KEGG_RNA_DEGRADATION, FDR q-val 0.672): −1.228 | NES (UM16 cell line; KEGG_SPLICEOSOME, FDR q-val 0.541): −1.319 | NES (UM16 cell line; KEGG_VIBRIO_CHOLERAE_INFECTION, FDR q-val 0.754): −1.044 | ES (UM16 cell line; [50]): 0.497 | NES (UM16 cell line; [50]): 1.292
